Bridge positions count the residues as written; N and C are the ends. Ends that are not written are not given here.
Experiments:
IL-2/15Rβγc receptor = target: T1, IL-2/15Rβγc receptor (Homo sapiens, UniProt P31785); experiment: IL-15-induced STAT activation in TF-1 cells expressing IL-2/15Rβ; format: cell-based; details: IL-15 at ~EC75; up to 10 μM MDK1472 or 5 μM MDK-703
T1 construct: pcDNA3.1 expression vector encoding full-length IL-2Rβ, IL-7Rα, IL-9Rα, or IL-21Rα; TF-1 cells naturally express γc and IL-4Rα; expressed in transfected cells
T1 sequence (P31785 23-369): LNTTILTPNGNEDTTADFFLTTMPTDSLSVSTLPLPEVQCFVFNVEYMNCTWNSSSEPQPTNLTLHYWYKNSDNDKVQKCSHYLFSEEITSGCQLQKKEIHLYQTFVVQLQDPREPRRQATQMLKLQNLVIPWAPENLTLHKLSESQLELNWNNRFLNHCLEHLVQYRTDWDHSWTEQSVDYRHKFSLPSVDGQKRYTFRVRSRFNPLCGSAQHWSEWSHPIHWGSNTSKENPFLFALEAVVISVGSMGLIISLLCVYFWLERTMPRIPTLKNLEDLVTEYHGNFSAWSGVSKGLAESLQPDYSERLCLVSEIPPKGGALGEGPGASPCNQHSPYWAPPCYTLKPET
Procedure: There is no detectable effect of the novel agonists on the activation of any of the other receptors of the γc family.
Cells were deprived of growth factors by overnight incubation at 5×10^5 cells/mL in starvation medium (RPMI 1640 + 4.5 g/L glucose + 0.2% FBS + 2 mM L-glutamine + 1 mM NaPyr + 10 mM HEPES + 0.5x penicillin-streptomycin with no cytokine supplement) in T75 flasks. For assays, cells were plated in 96-well V-bottom plates at 2×10^5 cells/well. Three-fold serial dilutions in starvation medium of the test compounds or cytokine were added to the cells and incubated for 30 min at 37°C. Following incubation, cell extracts were prepared by adding a mixture of 10x Cell Lysis Buffer (Cell Signaling Technology Cat# 9803) and 100x HALT Phosphatase and Protease Inhibitor Cocktail (Thermo Fisher Cat# 78442) directly to the wells. The plates were agitated at 25°C for 5 min to prepare cell extracts for immediate use or to be stored at -80°C until assay. […]
TF-1-derived lines separately expressing each gamma common family private receptor were starved overnight at 5x10^5 cells/mL. The following day, the cells were counted and plated at 2x10^6 cells/well in 96-well plates. […] Cell extracts were prepared and analyzed for pSTAT3, pSTAT5, or pSTAT6 accumulation with Pathscan pSTAT ELISA kits as described above.

[1] = Plasma stability in vitro, cynomolgus plasma; format: in vitro ADME; set-up: dose or concentration left out as unconfirmed; details: cynomolgus monkey, 37°C, incubated in duplicate, intact peptide by LC/MS/MS, read-out: t1/2 in cynomolgus plasma (converted)
Source text: (§1) Affinity maturation of these initial families produced ligands with improved affinities; and combinations of these ligands (one each for IL-7Rα and γc) were joined into heterodimers in a variety of orientations (i.e., joined by N-termini, C-termini, or N-to-C termini), with several connection chemistries, for testing as IL-7R agonists in cell-based assays. The lead peptide agonist for detailed characterization, as described here, is a fusion of peptides MDK1248 and MDK1188, joined with a short intervening linker to form the single-chain peptide MDK1472. The peptides were analyzed for sequence similarity to IL-7, and none was found.
(§2) Supplementary file pone.0286834.s001.pptx: S1 Fig Plasma stability of MDK 1472 in vitro. […] MDK1472 or control peptide YGGFL incubated in duplicate in human or cynomolgus plasma at 37°C. At indicated time points, compounds were isolated from the plasma and the quantity of intact peptides measured by LC/MS/MS (Study performed by Quintara Discovery, Hayward, CA). (PPTX) Click here for additional data file.

[2] = Plasma stability in vitro, human plasma; format: in vitro ADME; set-up: dose or concentration left out as unconfirmed; details: 37°C, incubated in duplicate, intact peptide by LC/MS/MS, read-out: t1/2 in human plasma (converted)
Source text: as §1, §2

cynomolgus monkey PBMCs = experiment: pSTAT5 flow cytometry in cynomolgus PBMC subsets; format: cell-based, cynomolgus macaque; details: rested cynomolgus PBMCs
Source text: (§3) Frozen PBMCs from 5 healthy human donors (A, B) and cynomolgus monkey (C) were rested (A, C) or activated with anti-CD3/CD28 (B). Cells were stained for viability, followed by cell surface antibody staining on ice. […] After washing, cells were fixed, permeabilized, stained with anti-pSTAT5 antibody, and analyzed immediately by flow cytometry. The mean fluorescence intensity (MFI) of pSTAT5 detection was shown as mean ± SEM. […] Flow cytometry gating data shown in S2 Fig.
(§4) To detect phopho-STAT5 in immune subsets of PBMCs by flow cytometry, frozen human and cynomolgus macaques PBMCs (Stemcell Technologies, Cat# 70025.2 and iQ Biosciences, Cat# IQB-MnPB102, respectively) from 5 different healthy donors were thawed and rested overnight in T-cell media (CTS™ OpTmizer™ T-Cell Expansion SFM, ThermoFisher Scientific Cat# A1048501) at 37°C. Cells were stained with a viability dye for 30 min at 37°C followed by surface marker antibodies for 30 min on ice (S3 Table), then treated with serially diluted test compounds in the medium for 30 min. […] Antibody-stained cells were analyzed immediately by flow cytometry using the Novocyte Advanteon instrument (Agilent), and the data were analyzed using FlowJo software. Fluorescence minus one (FMO) controls were used to draw gates. […]

human PBMCs = experiment: pSTAT5 flow cytometry in human PBMC subsets; format: cell-based
Source text: as §3, §4

Substance | inhibition of IL-15 activation (IL-2/15Rβγc receptor) | half-life [1] [h] | half-life [2] [h] | efficacy in cynomolgus lymphocyte subtypes (cynomolgus monkey PBMCs) | pSTAT5 response of NK cells (human PBMCs)
Ac-GWGIPWCTLDPGSLQCAWLGKHGGGGSGGVVCQDWEGVELCWQGG (disulfide 7-16, 32-41) [MDK1472] | neither MDK1472 nor MDK-703 exhibit inhibition | 104 | 60 | – | –
IL-7: human IL-7 cytokine (Peprotech) | – | – | – | equivalent efficacy | no pSTAT5 response

Reference: PMC10597491 (PLOS ONE, 2023)
